# Data reported in US10227350B2 (Gilead Sciences, Inc., priority 2016, dated 2019).
# Target: PI3Kβ (Homo sapiens (Human), UniProt P42338)
# Assay: TR-FRET enzymatic activity assay, PI3Kβ
# Format: biochemical
# Conditions: 2× Km ATP, 2 μM PIP2, 30 minutes at 25° C., read-out: IC50-PIP-Beta
# Procedure: The compounds of formula (I) were characterized for their enzymatic activity against the PI3K isoforms. The activities were measured using a time-resolved fluorescence resonance energy transfer (TR-FRET) assay. TR-FRET monitored the formation of 3,4,5-inositol triphosphate molecule that competed with fluorescently labeled PIPS for binding to the GRP-1 pleckstrin homology domain protein.
# Class I PI3K isoforms were expressed and purified as heterodimeric recombinant proteins. All assay reagents and buffers for the TR-FRET assay were purchased from Millipore. […] The compounds were added to the assay solution and incubated for 30 minutes at 25° C.
# Sequence of PI3Kβ (P42338 whole entry): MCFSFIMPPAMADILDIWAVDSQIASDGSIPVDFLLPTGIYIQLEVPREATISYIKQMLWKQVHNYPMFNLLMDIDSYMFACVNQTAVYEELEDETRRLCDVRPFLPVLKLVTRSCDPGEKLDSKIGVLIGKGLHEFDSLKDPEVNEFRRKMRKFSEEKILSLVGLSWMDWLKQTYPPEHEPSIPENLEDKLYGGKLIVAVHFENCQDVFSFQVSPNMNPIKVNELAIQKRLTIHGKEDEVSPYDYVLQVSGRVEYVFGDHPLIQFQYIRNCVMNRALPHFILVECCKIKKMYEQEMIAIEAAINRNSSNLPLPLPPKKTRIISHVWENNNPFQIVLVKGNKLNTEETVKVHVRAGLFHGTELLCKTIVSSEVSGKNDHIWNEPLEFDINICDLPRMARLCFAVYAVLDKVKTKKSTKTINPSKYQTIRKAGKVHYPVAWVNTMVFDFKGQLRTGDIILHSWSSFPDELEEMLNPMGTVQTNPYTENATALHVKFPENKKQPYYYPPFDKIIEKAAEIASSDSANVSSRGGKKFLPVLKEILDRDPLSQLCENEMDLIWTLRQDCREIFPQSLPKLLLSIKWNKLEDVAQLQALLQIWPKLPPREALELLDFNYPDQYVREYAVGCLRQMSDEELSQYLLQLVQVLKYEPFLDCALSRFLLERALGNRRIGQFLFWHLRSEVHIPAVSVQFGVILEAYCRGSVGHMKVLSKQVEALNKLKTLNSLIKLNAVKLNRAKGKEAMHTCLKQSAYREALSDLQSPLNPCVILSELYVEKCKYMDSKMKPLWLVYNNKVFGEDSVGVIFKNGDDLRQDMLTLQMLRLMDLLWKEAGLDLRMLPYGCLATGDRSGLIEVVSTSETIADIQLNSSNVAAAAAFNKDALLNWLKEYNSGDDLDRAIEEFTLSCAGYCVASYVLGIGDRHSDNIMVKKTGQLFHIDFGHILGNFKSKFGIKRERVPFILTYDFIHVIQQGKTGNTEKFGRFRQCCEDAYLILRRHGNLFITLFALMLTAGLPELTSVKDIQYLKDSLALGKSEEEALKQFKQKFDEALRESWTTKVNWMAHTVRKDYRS
# Sequence of PI3Kβ (P27986 whole entry partner): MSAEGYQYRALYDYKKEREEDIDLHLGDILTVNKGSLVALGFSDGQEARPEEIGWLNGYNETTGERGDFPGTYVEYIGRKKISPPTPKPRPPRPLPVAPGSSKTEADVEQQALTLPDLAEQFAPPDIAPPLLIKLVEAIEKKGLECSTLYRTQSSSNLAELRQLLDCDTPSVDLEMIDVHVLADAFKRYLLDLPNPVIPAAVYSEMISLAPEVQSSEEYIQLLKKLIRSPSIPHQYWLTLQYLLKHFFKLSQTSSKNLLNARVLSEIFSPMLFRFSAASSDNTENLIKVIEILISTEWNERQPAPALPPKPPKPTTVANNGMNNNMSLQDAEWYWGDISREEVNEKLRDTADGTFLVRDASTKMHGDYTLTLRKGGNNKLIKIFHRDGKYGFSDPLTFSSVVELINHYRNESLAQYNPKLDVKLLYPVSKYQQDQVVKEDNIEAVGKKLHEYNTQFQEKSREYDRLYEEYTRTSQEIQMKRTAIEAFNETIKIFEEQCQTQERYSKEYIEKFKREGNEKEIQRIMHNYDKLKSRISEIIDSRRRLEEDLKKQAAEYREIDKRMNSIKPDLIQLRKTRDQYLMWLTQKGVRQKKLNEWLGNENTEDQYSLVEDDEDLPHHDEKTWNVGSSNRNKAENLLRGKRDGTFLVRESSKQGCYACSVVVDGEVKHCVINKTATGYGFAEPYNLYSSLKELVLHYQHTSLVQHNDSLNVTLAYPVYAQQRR
row,Structure (SMILES),IC50 [nM]
1,"Cc1nc2c(-c3nnc[nH]3)cc(-c3ccnc(N)c3F)cc2n1-c1ccnc2c(Cl)ccc(Cl)c12 (single isomer, unassigned) [Example 119, 4-(1-(5,8-dichloroquinolin-4-yl)-2-methyl-4-(4H-1,2,4-triazol-3-yl)-1H-benzo[d]imidazol-6-yl)-3-fluoropyridin-2-amine]",87
2,"Cc1nc2c(C(N)=O)cc(-c3ncnc(N)c3C#N)cc2n1-c1ccnc2c(F)ccc(F)c12 [Example 157, 6-(6-amino-5-cyanopyrimidin-4-yl)-1-(5,8-difluoroquinolin-4-yl)-2-methyl-1H-benzo[d]imidazole-4-carboxamide]",460
3,"Cc1nc2c(-c3nnc[nH]3)cc(-c3ccncc3)cc2n1-c1ccnc2c(Cl)ccc(F)c12 [Example 37, 8-chloro-5-fluoro-4-[2-methyl-6-pyridin-4-yl-4-(4H-1,2,4-triazol-3-yl)benzimidazol-1-yl]quinoline]",4
4,"Cc1nc2c(-c3nnc[nH]3)cc(-c3ccnc(N)c3)cc2n1-c1ccnc2c(F)ccc(F)c12 [Example 48, 4-[3-(5,8-difluoroquinolin-4-yl)-2-methyl-7-(4H-1,2,4-triazol-3-yl)benzimidazol-5-yl]pyridin-2-amine]",10
5,Cc1nc2c(C(=O)O)cc(-c3ncnc4[nH]cnc34)cc2n1-c1ccnc2c(Cl)cccc12 [Example 3],2800
6,"Cc1nc2c(-c3nnc[nH]3)cc(-c3ccncc3)cc2n1-c1ccnc2c(F)ccc(F)c12 (atropisomer, axis not shown) [Example 139, 5,8-difluoro-4-(2-methyl-6-(pyridin-4-yl)-4-(4H-1,2,4-triazol-3-yl)-1H-benzo[d]imidazol-1-yl)quinoline]",6
7,"Cc1nc2c(-c3nnc[nH]3)cc(-c3ccnc(C#N)c3)cc2n1-c1ccnc2c(Cl)ccc(F)c12 (single isomer, unassigned) [Example 135, 4-(1-(8-chloro-5-fluoroquinolin-4-yl)-2-methyl-4-(4H-1,2,4-triazol-3-yl)-1H-benzo[d]imidazol-6-yl)picolinonitrile]",4
8,"COc1nccc(-c2cc(-c3nnc[nH]3)c3nc(C)n(-c4ccnc5c(F)ccc(F)c45)c3c2)n1 [Example 154, 5,8-difluoro-4-(6-(2-methoxypyrimidin-4-yl)-2-methyl-4-(4H-1,2,4-triazol-3-yl)-1H-benzo[d]imidazol-1-yl)quinoline]",9
9,"CCCc1nc2c(-c3nnc[nH]3)cc(-c3ccnc(N)c3)cc2n1-c1ccnc2c(Cl)ccc(F)c12 [Example 63, 4-[3-(8-chloro-5-fluoroquinolin-4-yl)-2-propyl-7-(4H-1,2,4-triazol-3-yl)benzimidazol-5-yl]pyridin-2-amine]",7
10,"Cc1nc2c(-c3nnc[nH]3)cc(-c3ccnc(N)c3F)cc2n1-c1ccnc2c(F)ccc(F)c12 (single isomer, unassigned) [Example 105, 4-[3-(5,8-difluoroquinolin-4-yl)-2-methyl-7-(4H-1,2,4-triazol-3-yl)benzimidazol-5-yl]-3-fluoropyridin-2-amine]",1400
11,"CCc1nc2c(-c3nnc[nH]3)cc(-c3ccnc(N)c3F)cc2n1-c1ccnc2c(F)ccc(F)c12 [Example 95, 4-[3-(5,8-difluoroquinolin-4-yl)-2-ethyl-7-(4H-1,2,4-triazol-3-yl)benzimidazol-5-yl]-3-fluoropyridin-2-amine]",5
12,"Cc1nc2c(-c3nnc[nH]3)cc(-c3ccnc(C#N)c3)cc2n1-c1ccnc2c(F)ccc(Cl)c12 [Example 144, 4-(1-(5-chloro-8-fluoroquinolin-4-yl)-2-methyl-4-(4H-1,2,4-triazol-3-yl)-1H-benzo[d]imidazol-6-yl)picolinonitrile]",18
13,"Cc1nc2c(-c3nnc[nH]3)cc(-c3ccnc(N)c3F)cc2n1-c1ccnc2c(F)ccc(Cl)c12 [Example 99, 4-[3-(5-chloro-8-fluoroquinolin-4-yl)-2-methyl-7-(4H-1,2,4-triazol-3-yl)benzimidazol-5-yl]-3-fluoropyridin-2-amine]",29
14,"Cc1nc2c(-c3nnc[nH]3)cc(-c3cc(N)ncc3F)cc2n1-c1ccnc2c(F)ccc(F)c12 [Example 76, 4-[3-(5,8-difluoroquinolin-4-yl)-2-methyl-7-(4H-1,2,4-triazol-3-yl)benzimidazol-5-yl]-5-fluoropyridin-2-amine]",50
15,"Cc1cccc2nccc(-n3c(C)nc4c(-c5nnc[nH]5)cc(-c5ccncc5)cc43)c12 [Example 31, 5-methyl-4-[2-methyl-6-pyridin-4-yl-4-(4H-1,2,4-triazol-3-yl)benzimidazol-1-yl]quinoline]",89
16,"Cc1nc2c(-c3nnc[nH]3)cc(-c3ccnc(F)c3)cc2n1-c1ccnc2c(F)ccc(F)c12 (single isomer, unassigned) [Example 134, 5,8-difluoro-4-(6-(2-fluoropyridin-4-yl)-2-methyl-4-(4H-1,2,4-triazol-3-yl)-1H-benzo[d]imidazol-1-yl)quinoline]",400
17,"CCCc1nc2c(-c3nnc[nH]3)cc(-c3ccnc(N)c3F)cc2n1-c1ccnc2c(F)cccc12 [Example 87, 3-fluoro-4-[3-(8-fluoroquinolin-4-yl)-2-propyl-7-(4H-1,2,4-triazol-3-yl)benzimidazol-5-yl]pyridin-2-amine]",12

row,Structure (SMILES),IC50 [nM]
1,"NC(=O)c1cc(-c2ccncc2)cc2c1ncn2-c1ccnc2c(Cl)cccc12 [Example 5, 1-(8-chloroquinolin-4-yl)-6-pyridin-4-ylbenzimidazole-4-carboxamide]",86
2,"Cc1nc2c(-c3nnc[nH]3)cc(-c3ccnc(N)c3F)cc2n1-c1ccnc2c(F)ccc(F)c12 (atropisomer, axis not shown) [Example 106, 4-[3-(5,8-difluoroquinolin-4-yl)-2-methyl-7-(4H-1,2,4-triazol-3-yl)benzimidazol-5-yl]-3-fluoropyridin-2-amine]",3
3,"N#Cc1cc(-c2cc(-c3nnc[nH]3)c3ncn(-c4cc(-c5cn[nH]c5)nc5ccccc45)c3c2)ccn1 [Example 166, 4-(1-(2-(1H-pyrazol-4-yl)quinolin-4-yl)-4-(4H-1,2,4-triazol-3-yl)-1H-benzo[d]imidazol-6-yl)picolinonitrile]",70
4,NC(=O)c1cc(-c2ccnc(N)c2F)cc2c1nc(C1CC1)n2-c1ccnc2c(Cl)ccc(F)c12 [Example 25],6
5,"Cc1nc2c(-c3nnc[nH]3)cc(-c3ccnc(C#N)c3)cc2n1-c1ccnc2cccc(Cl)c12 (single isomer, unassigned) [Example 126, 4-(1-(5-chloroquinolin-4-yl)-2-methyl-4-(4H-1,2,4-triazol-3-yl)-1H-benzo[d]imidazol-6-yl)picolinonitrile]",780
6,"Nc1nccc(-c2ccc3ncn(-c4cc(N5CCNCC5)nc5ccccc45)c3c2)c1F [Example 163, 3-fluoro-4-(1-(2-(piperazin-1-yl)quinolin-4-yl)-1H-benzo[d]imidazol-6-yl)pyridin-2-amine]",120
7,"Cc1nc2c(-c3nnc[nH]3)cc(-c3ccnc(N)c3F)cc2n1-c1ccnc2c(F)cccc12 [Example 86, 3-fluoro-4-[3-(8-fluoroquinolin-4-yl)-2-methyl-7-(4H-1,2,4-triazol-3-yl)benzimidazol-5-yl]pyridin-2-amine]",7
8,"Cc1nc2c(-c3nnc[nH]3)cc(-c3ccncc3)cc2n1-c1ccnc2cccc(F)c12 [Example 30, 5-fluoro-4-[2-methyl-6-pyridin-4-yl-4-(4H-1,2,4-triazol-3-yl)benzimidazol-1-yl]quinoline]",8
9,"Cc1nc2c(-c3nnc[nH]3)cc(-c3ccnc(N)c3)cc2n1-c1ccnc2c(F)ccc(F)c12 (single isomer, unassigned) [Example 104, 4-(1-(5,8-difluoroquinolin-4-yl)-2-methyl-4-(4H-1,2,4-triazol-3-yl)-1H-benzo[d]imidazol-6-yl)pyridin-2-amine]",9
10,"Cc1nc2c(-c3nnc[nH]3)cc(-c3ccnc(N)c3F)cc2n1-c1ccnc2cc(F)cc(F)c12 (single isomer, unassigned) [Example 118]",35
11,"Cc1cc(-c2cc(-c3nnc[nH]3)c3nc(C)n(-c4ccnc5c(F)ccc(F)c45)c3c2)ccn1 [Example 45, 5,8-difluoro-4-[2-methyl-6-(2-methylpyridin-4-yl)-4-(4H-1,2,4-triazol-3-yl)benzimidazol-1-yl]quinoline]",8
12,"Cc1nc2c(-c3nnc[nH]3)cc(-c3ccnc(C(F)F)c3)cc2n1-c1ccnc2c(F)ccc(F)c12 [Example 43, 4-(6-(2-(difluoromethyl)pyridin-4-yl)-2-methyl-4-(4H-1,2,4-triazol-3-yl)-1H-benzo[d]imidazol-1-yl)-5,8-difluoroquinoline]",30
13,"CCCc1nc2c(-c3nnc[nH]3)cc(-c3ccnc(N)c3)cc2n1-c1ccnc2c(F)ccc(F)c12 [Example 72, 4-[3-(5,8-difluoroquinolin-4-yl)-2-propyl-7-(4H-1,2,4-triazol-3-yl)benzimidazol-5-yl]pyridin-2-amine]",10
14,"Nc1nccc(-c2cc(-c3nnc[nH]3)c3ncn(-c4cc(N5CCNCC5)nc5ccccc45)c3c2)c1F [Example 162, 3-fluoro-4-(1-(2-(piperazin-1-yl)quinolin-4-yl)-4-(4H-1,2,4-triazol-3-yl)-1H-benzo[d]imidazol-6-yl)pyridin-2-amine]",10
15,"Cc1nc2c(-c3nnc[nH]3)cc(-c3ccnc(N)c3F)cc2n1-c1ccnc2cccc(F)c12 [Example 93, 3-fluoro-4-[3-(5-fluoroquinolin-4-yl)-2-methyl-7-(4H-1,2,4-triazol-3-yl)benzimidazol-5-yl]pyridin-2-amine]",5
16,"CCc1nc2c(-c3nnc[nH]3)cc(-c3ccnc(N)c3)cc2n1-c1ccnc2cc(F)ccc12 [Example 52, 4-[2-ethyl-3-(7-fluoroquinolin-4-yl)-7-(4H-1,2,4-triazol-3-yl)benzimidazol-5-yl]pyridin-2-amine]",330
